Data: publication PMC11968394, “The effect of deuterated PLK1 inhibitor on its safety and efficacy in vivo” (Frontiers in Oncology, 2025)
“And” between values parts separate entries of the source, which are not always exact repeats. Equal entries are not always repeated.

Key:
[1] = biological target: CLK4 (Homo sapiens, UniProt Q9HAZ1); assay: Kinase assay CLK4; type: biochemical
Description: Serial dilutions in DMSO were prepared. PLK1 was serially diluted 5-fold from 10 μM, yielding concentrations from 10000 nM to 0.00512 nM. Other targets were serially diluted 3-fold from 10 μM, yielding concentrations from 10000 nM to 0.5 nM. We have used two kinase assays: HTRF assay and ADG-Glo assay.
For HTRF Assay, 2× ATP/substrate solution and 2× kinase solution were prepared in kinase reaction buffer. Using an Echo 655, 50 nL of each diluted compound was transferred to a 384-well detection plate. The plate was centrifuged at 1000 rpm for 1 minute. 2.5 μL of 2× kinase solution was added to each well. The plate was incubated at 25°C for 10 minutes. 2.5 μL of 2× ATP/substrate solution was added to each well. The plate was centrifuged at 1000 rpm for 1 minute. The plate was incubated at 25°C for 40 minutes. 2× XL665 and antibody detection reagent were prepared in detection buffer. 5 μL of the prepared kinase detection reagent was added to each well. The plate was centrifuged at 1000 rpm for 1 minute. The plate was incubated at 25°C for 1 hour. Fluorescence signals at 620 nm (Cryptate) and 665 nm (XL665) were measured using a multifunction plate reader.
For ADP-Glo Assay, 2× ATP/substrate solution and 2× kinase solution were prepared in kinase reaction buffer. […] Luminescence signals were measured using a multifunction plate reader.

[2] = system: PSN1; assay: Cell viability (CellTiter-Glo, 72 h), PSN1; type: cell-based, Human; settings: PSN1, 72 hours; for IC50: Homo sapiens; for Bottom: dose-response curve bottom; for Top: dose-response curve top
Description: (§1) Human pancreatic cancer cell lines (PSN1, PANC-1, Panc 04.03, MIA PaCa-2, BxPC-3, and Capan-1) were cultured in their respective culture media. PSN1 cell lines were maintained in RPMI 1640 + 10%FBS. MIA PaCa-2 cells were cultured in DMEM+10%FBS+5% horse serum. Panc 04.03 cells were grown in RPMI 1640 + 15%FBS+10μg/mL Insulin. PANC-1 cells were maintained in DMEM+10%FBS. BxPC-3 cells were cultured in RPMI 1640 + 10%FBS. Capan-1 cells were grown in IMDM+20%FBS. All cells were incubated at 37°C in a humidified atmosphere containing 5% CO2.
(§2) For assays, cells in the logarithmic growth phase were harvested, seeded to different concentrations at 2,000-6,000 cells/well in 96-well plates. Following overnight incubation, test compounds were added at various concentrations and incubated for 72 hours. Cell viability was assessed by the ATP concentration using the CellTiter-Glo reagent (Promega, Madison, WI 53711 USA), and luminescence values were recorded by a Multilabel Reader (PerkinElmer, Waltham, MA, USA).

[3] = system: HCT 116 CDX model; assay: HCT 116 CDX model; type: in vivo, BALB/c nude mouse; settings: for Tumor growth: BALB/c nude mice; for Mice died: BALB/c nude, 8 mice/group
Description: These studies were performed at Yikon Medical (Beijing, China). Cancer cell line HCT 116 or BxPC-3 were cultured in 10% FBS RPMI-1640 medium plus penicillin, streptomycin, and glutamine at 37°C and 5% CO2 until reaching confluency. Cells were then prepared for inoculation. 5×10⁷ cells/mL cells in 100 µL were inoculated subcutaneously into the right flank of each female BALB/c nude mouse for HCT 116 cell line or female NOD SCID mouse for BxPC-3 cell line. […] […] Mice were dosed at least 10 days and were monitored for 30 days.
TGI was calculated as follows.

[4] = system: BxPC-3; assay: Cell viability (CellTiter-Glo, 72 h), BxPC-3; type: cell-based, Human; settings: BxPC-3, 72 hours; for Bottom: dose-response curve bottom; for Top: dose-response curve top; for IC50: Homo sapiens
Description: as §1, §2

[5] = parameters: method as in PMID 28726132; settings: phase 1 clinical trial, given dosage, 5-day dosing time period; cited from earlier work

Chain of CLK4 (Q9HAZ1 whole entry, species assumed): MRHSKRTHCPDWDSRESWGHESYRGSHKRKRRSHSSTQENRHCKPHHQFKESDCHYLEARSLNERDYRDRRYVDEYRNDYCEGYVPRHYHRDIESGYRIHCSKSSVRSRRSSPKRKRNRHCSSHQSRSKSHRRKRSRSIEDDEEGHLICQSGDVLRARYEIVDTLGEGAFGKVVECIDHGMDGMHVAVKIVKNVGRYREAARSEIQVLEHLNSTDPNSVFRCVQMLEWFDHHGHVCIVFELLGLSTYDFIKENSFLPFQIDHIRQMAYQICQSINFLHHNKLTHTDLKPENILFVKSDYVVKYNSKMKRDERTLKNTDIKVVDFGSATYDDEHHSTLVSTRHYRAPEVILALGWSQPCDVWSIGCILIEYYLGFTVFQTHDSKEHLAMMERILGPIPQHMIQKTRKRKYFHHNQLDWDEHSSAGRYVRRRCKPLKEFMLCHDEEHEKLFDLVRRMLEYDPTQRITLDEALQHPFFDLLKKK

Compound | IC50 [1] [nM] | IC50 [2] [nM] | Bottom [2] | Top [2] | Body weight ([3]; 60 mg/kg) | Tumor growth [3] | Mice died ([3]; 30 mg/kg, 30 mg/kg) | Mice died ([3]; 60 mg/kg, 60 mg/kg) | Bottom [4] | Top [4] | IC50 [4] [nM] | Tolerability [5] | Mice died ([3]; 30 mg/kg)
CN1CCN(c2ccc(OC(F)(F)F)c(Nc3ncc4c(n3)-c3c(c(C(N)=O)nn3CCO)CC4)c2)CC1 [NMS-P937] | 278 | 48.9 | 2.3 | 85.9 | significant loss of body weight | inhibited the growth of tumors in a dose-dependent manner | one mouse died and 1/8 | three mice died and 3/8 | -2.8 | 53.5 | 64.9 | well tolerated | 
[2H]C1([2H])N(C)C([2H])([2H])C([2H])([2H])N(c2ccc(OC(F)(F)F)c(Nc3ncc4c(n3)-c3c(c(C(N)=O)nn3CCO)CC4)c2)C1([2H])[2H] [PR00012] | 231 | 60.7 | 13.7 | 93.7 |  | inhibited the growth of tumors in a dose-dependent manner |  | one mouse died and 1/8 | 13.6 | 66.3 | 65.1 |  | No mice died
